From US10710986B2, “PD-1/PD-L1 inhibitors” (Gilead Sciences, Inc., priority 2018, dated 2020) come the findings set out here.

Chain of PD-1/PD-L1 (Q9NZQ7 19-238): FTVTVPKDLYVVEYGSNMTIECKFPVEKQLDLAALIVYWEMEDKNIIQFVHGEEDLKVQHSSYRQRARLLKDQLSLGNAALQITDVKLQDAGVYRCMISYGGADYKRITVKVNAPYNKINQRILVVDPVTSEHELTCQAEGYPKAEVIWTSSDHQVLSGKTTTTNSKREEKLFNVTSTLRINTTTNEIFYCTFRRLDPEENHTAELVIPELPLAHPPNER

The test concerns the target PD-1/PD-L1 (Homo sapiens (Human), UniProt Q9NZQ7). The experiment in a line: PD-1/PD-L1 biochemical protein-protein interaction assay (ALPHA). The note with it: 0.3 nM His tagged PD-L1, 2.5 nM biotinylated Fc-PD-1, 60 minutes at 25° C., read-out: IC50 PD-L1-PD1.
Take `COc1nc(-c2cccc(-c3cccc(-c4cnc(CN5CC6(CCC(=O)N6)C5)c(OC)n4)c3Br)c2Cl)cnc1CN1CC2(CCC(=O)N2)C1` [compound 390]: the concentration for half-maximal inhibition (IC50) (usually the concentration that inhibits the measured activity by half) came to 146 pM. With `COc1nc(-c2cccc(-c3cccc(-c4cnc(CN[C@H](C)CO)c(OC)n4)c3Cl)c2Cl)cnc1CNC[C@@H]1CCC(=O)N1` [compound 347], the 50% inhibitory concentration (IC50) came out at 245 pM. Turning to `COc1nc(-c2cccc(-c3cccc(-c4cnc(CNC[C@H](C)O)c(OC)n4)c3Cl)c2Cl)cnc1CNC[C@@H]1CCC(=O)N1` [compound 344], the IC50 stood at 114 pM.

For `COc1nc(-c2cccc(-c3cccc(-c4cnc(CN5CCC6(CNC(=O)C6)C5)c(OC)n4)c3Cl)c2Cl)cnc1CNC[C@H]1CCC(=O)N1` (stereo partly shown) [compound 193], the IC50 came out at 133 pM. Take `COc1nc(-c2cccc(-c3cccc(-c4cnc(CN5CC[C@@H](C(=O)O)C5)c(OC)n4)c3Cl)c2Cl)ccc1CNC[C@@H]1CCC(=O)N1` [compound 514]: the IC50 worked out at 90 pM.

For `COc1nc(-c2cccc(-c3cccc(-c4cnc(CN5CC6CC5(CO)C6)c(OC)n4)c3Cl)c2Cl)cnc1CNC[C@@H]1CCC(=O)N1` [compound 53], the IC50 was found to be 100 pM. For `COc1nc(-c2cccc(-c3cccc(-c4cnc(CN5CC6(CNC(=O)C6)C5)c(OC)n4)c3Cl)c2Cl)ccc1C1=NCCN1` [compound 114], the IC50 was 64 pM.

Regarding `COc1nc(-c2cccc(-c3cccc(-c4cnc(CN[C@H]5C[C@H](CO)C5)c(OC)n4)c3Cl)c2Cl)cnc1CN[C@H]1C[C@H](CO)C1` [compound 149], the IC50 amounted to 270 pM. As for `COc1nc(-c2cccc(-c3cccc(-c4cnc(CN5CC(C)(O)C5)c(OC)n4)c3Cl)c2Cl)cnc1CNCCO` [compound 449], the figure is 285 pM; as for `COc1nc(-c2cccc(-c3cccc(-c4cnc(CN5CC[C@@H](NC(C)=O)C5)c(OC)n4)c3Cl)c2Cl)cnc1CNC[C@H]1CCC(=O)N1` [compound 198], 121 pM; as for `COc1nc(-c2cccc(-c3cccc(-c4cnc(CNCCO)c(OC)n4)c3Cl)c2Cl)cnc1CNCCO` [compound 140], 260 pM. On to `COc1nc(-c2cccc(-c3cccc(-c4cnc(CNC[C@@H]5CCC(=O)N5)c(OC)n4)c3Cl)c2Cl)cnc1CNCc1c[nH]nn1` [compound 35], for which the IC50 worked out at 191 pM.

Turning to `COc1nc(-c2cccc(-c3cccc(-c4cc(C)c(CNC[C@@H]5CCC(=O)N5)c(OC)n4)c3Cl)c2Cl)cnc1CNC[C@@H]1CCC(=O)N1` [compound 628], the IC50 came out at 64 pM. For the compound `COc1nc(-c2cccc(-c3cccc(-c4cnc(CN5CCC6(C5)NC(=O)N(C)C6=O)c(OC)n4)c3Cl)c2Cl)cnc1CNC[C@@H]1CCC(=O)N1` (stereo partly shown) [compound 294], the IC50 was 298 pM. As for `COc1nc(-c2cccc(-c3cccc(-c4cnc(CNC[C@H]5CCC(=O)N5)c(OC)n4)c3Cl)c2Cl)cnc1CNCC1CNC(=O)C1` (stereo partly shown) [compound 196], the figure is 170 pM; as for `COc1nc(-c2cccc(-c3cccc(-c4cc(C)c(CNC[C@H]5C[C@H](O)C5)c(OC)n4)c3Cl)c2Cl)cnc1CNC[C@@H]1CCC(=O)N1` [compound 652], 120 pM; as for `CNC(=O)NC1CN(Cc2ncc(-c3cccc(-c4cccc(-c5cnc(CN6CC(NC(=O)NC)C6)c(OC)n5)c4Cl)c3Cl)nc2OC)C1` [compound 554], 99 pM. In the case of `CNc1nc(-c2cccc(-c3cccc(-c4cnc(CNC[C@H]5CCC(=O)N5)c(NC)n4)c3Cl)c2Cl)cnc1CNC[C@H]1CCC(=O)N1` [compound 320], the IC50 came out at 3720 pM. As for `CCNc1nc(-c2cccc(-c3cccc(-c4cnc(CN5CC6(CNC(=O)C6)C5)c(NCC)n4)c3Cl)c2Cl)cnc1CN1CC2(CNC(=O)C2)C1` [compound 67], the figure is 292 pM; as for `COc1nc(-c2cccc(-c3cccc(-c4cnc(CNC[C@@H]5CCC(=O)N5)c(OC)n4)c3Cl)c2Cl)cnc1CNCC1CCNC(=O)C1` (stereo partly shown) [compound 659], 121 pM. As for `COc1nc(-c2cccc(-c3cccc(-c4cnc(CN[C@H]5C[C@H](O)C5)c(OC)n4)c3Cl)c2Cl)cnc1CNC[C@@H]1CCC(=O)N1` [compound 342], the figure is 107 pM; as for `COc1nc(-c2cccc(-c3cccc(-c4cnc(CN[C@@H]5C[C@H]5CO)c(OC)n4)c3Cl)c2Cl)cnc1CNC[C@@H]1CCC(=O)N1` [compound 276], 270 pM; as for `COc1nc(-c2cccc(-c3cccc(-c4cnc(CN5CC6(CCC(=O)N6)C5)c(OC)n4)c3F)c2Cl)ccc1CN1CC2(CCC(=O)N2)C1` [compound 618], 64 pM. To `COc1nc(-c2cccc(-c3cccc(-c4cnc(CN5CC6(CNC(=O)N6)C5)c(OC)n4)c3Cl)c2Cl)cnc1CNC[C@H]1CCC(=O)N1` [compound 207] belongs 104 pM. On to `COc1nc(-c2cccc(-c3cccc(-c4cnc(CNC[C@@H]5CCC(=O)N5)c(OC)n4)c3Cl)c2Cl)cnc1CNCCOc1ccccn1` [compound 620], for which the IC50 is 101 pM.

On to `Cc1nc(-c2cccc(-c3cccc(-c4cnc(CN5CC6(CNC(=O)C6)C5)c(C)n4)c3Cl)c2Cl)cnc1CN1CC2(CNC(=O)C2)C1` [compound 94], for which the IC50 was 862 pM. Regarding `COc1nc(-c2cccc(-c3cccc(-c4cnc(CN5CC6(C5)CN(C(C)=O)C6)c(OC)n4)c3F)c2Cl)ccc1CN1CC2(C1)CN(C(C)=O)C2` [compound 617], the IC50 came to 64 pM.

Regarding `COc1nc(-c2cccc(-c3cccc(-c4cnc(CNC[C@@H]5CCC(=O)N5)c(OC)n4)c3Cl)c2Cl)cnc1CNCC(N)=O` [compound 302], the IC50 came to 89 pM. To `COc1nc(-c2cccc(-c3cccc(-c4cnc(CN5CC(CO)C5)c(OC)n4)c3Cl)c2Cl)cnc1CN1CC(CO)C1` [compound 145] belongs 100 pM. Turning to `COc1nc(-c2cccc(-c3cccc(-c4cnc(CN5CC(C)(O)C5)c(OC)n4)c3Cl)c2Cl)ccc1CNC[C@@H]1CCC(=O)N1` [compound 631], the half-maximal inhibitory concentration (IC50) was found to be 64 pM. For the compound `COc1nc(-c2cccc(-c3cccc(-c4cnc(CN5C[C@H]6C[C@H]6[C@H]5CO)c(OC)n4)c3Cl)c2Cl)cnc1CNC[C@@H]1CCC(=O)N1` [compound 187], the IC50 is 280 pM.

As for `COc1nc(-c2cccc(-c3cccc(-c4cnc(CN5CC[C@](C)(O)C5)c(OC)n4)c3Cl)c2Cl)cnc1CN1CC[C@](C)(O)C1` [compound 142], the IC50 is 200 pM. `COc1nc(-c2cccc(-c3cccc(-c4cnc(CN)c(OC)n4)c3Cl)c2Cl)ccc1CNC[C@@H]1CCC(=O)N1` [compound 630]: the IC50 came to 437 pM. Take `COc1nc(-c2cccc(-c3cccc(-c4cnc(CNC[C@@H]5CCC(=O)N5)c(OC)n4)c3Cl)c2Cl)cnc1CNCCn1ccccc1=O` [compound 370]: the IC50 worked out at 64 pM.

Regarding `COc1nc(-c2cccc(-c3cccc(-c4cnc5c(CN6CC7(C6)CN(C(C)=O)C7)nn(C)c5n4)c3Cl)c2Cl)cnc1CN1CC2(C1)CN(C(C)=O)C2` [compound 489], the IC50 worked out at 332 pM. Turning to `COc1nc(-c2cccc(-c3cccc(-c4cnc(CNC[C@@H]5CCC(=O)N5)c(OC)n4)c3Cl)c2Cl)cnc1CNCCc1ccccn1` [compound 417], the IC50 turned out to be 196 pM. As for `COc1nc(-c2cccc(-c3cccc(-c4cnc(CNC(CO)(CO)CO)c(OC)n4)c3Cl)c2Cl)cnc1CNC[C@@H]1CCC(=O)N1` [compound 428], the figure is 272 pM; as for `COc1nc(-c2cccc(-c3cccc(-c4cnc(CNC[C@@H]5CCC(=O)N5)c(OC)n4)c3Cl)c2Cl)cnc1CNCCn1ccc(C)n1` [compound 214], 260 pM.

Regarding `COc1nc(-c2cccc(-c3cccc(-c4cnc(CNC[C@@H]5C[C@@H](C)C(=O)N5)c(OC)n4)c3Cl)c2Cl)cnc1CNC[C@@H]1C[C@@H](C)C(=O)N1` [compound 326], the half-maximal inhibitory concentration (IC50) worked out at 180 pM. As for `COc1nc(-c2cccc(-c3cccc(-c4cnc(CNC5CC6CC6C5)c(OC)n4)c3Cl)c2Cl)cnc1CNC[C@@H]1CCC(=O)N1` (stereo partly shown) [compound 273], the figure is 265 pM; as for `CCn1cc(CN2CC3(CNC(=O)C3)C2)c2ncc(-c3cccc(-c4cccc(-c5cnc(CN6CC7(CNC(=O)C7)C6)c(OC)n5)c4Cl)c3Cl)nc21` [compound 609], 79 pM. To `COc1nc(-c2cccc(-c3cccc(-c4cnc(CNC5CN(C(C)=O)C5)c(OC)n4)c3Cl)c2Cl)cnc1CNC[C@@H]1CCC(=O)N1` [compound 191] belongs 143 pM; to `COc1nc(-c2cccc(-c3cccc(-c4cnc(CN5C[C@@H](F)C[C@H]5CO)c(OC)n4)c3Cl)c2Cl)cnc1CNC[C@@H]1CCC(=O)N1` [compound 40], 238 pM; to `COCC(NCc1ncc(-c2cccc(-c3cccc(-c4cnc(CNC[C@@H]5CCC(=O)N5)c(OC)n4)c3Cl)c2Cl)nc1OC)C1CC1` (stereo partly shown) [compound 238], 297 pM. As to `COc1nc(-c2cccc(-c3cccc(-c4cnc(CNC[C@H]5NC(=O)[C@@H]6C[C@H]56)c(OC)n4)c3Cl)c2Cl)cnc1CNC[C@H]1NC(=O)[C@@H]2C[C@H]12` [compound 324], the concentration for half-maximal inhibition (IC50) came to 358 pM. To `COc1nc(-c2cccc(-c3cccc(-c4ccc(CN5CC(O)C5)c(C#N)c4)c3Cl)c2Cl)cnc1CNC[C@@H]1CCC(=O)N1` [compound 153] belongs 396 pM; to `COc1nc(-c2cccc(-c3cccc(-c4cnc(CNCC5(C#N)CC5)c(OC)n4)c3Cl)c2Cl)cnc1CNC[C@@H]1CCC(=O)N1` [compound 429], 349 pM; to `COc1nc(-c2cccc(-c3cccc(-c4cnc(CN[C@H]5C[C@@H](O)C5)c(OC)n4)c3Cl)c2Cl)cnc1CNC[C@@H]1CCC(=O)N1` [compound 343], 126 pM. As to `COc1nc(-c2cccc(-c3cccc(-c4cnc(CN5CC[C@@H](C)[C@@H](O)C5)c(OC)n4)c3Cl)c2Cl)cnc1CNC[C@@H]1CCC(=O)N1` [compound 229], the IC50 stood at 229 pM.

Turning to `COc1nc(-c2cccc(-c3cccc(-c4cnc(CN(Cc5ccccc5)C[C@@H]5CCC(=O)N5)c(OC)n4)c3Cl)c2Cl)cnc1CNC[C@@H]1CCC(=O)N1` [compound 325], the IC50 came to 1860 pM.

Turning to `COc1nc(-c2cccc(-c3cccc(-c4cnc(CNCC5(S(C)(=O)=O)CC5)c(OC)n4)c3Cl)c2Cl)cnc1CNC[C@@H]1CCC(=O)N1` [compound 218], the IC50 was 140 pM.

`COc1nc(-c2cccc(-c3cccc(-c4cnc(CNCC5(O)CCS(=O)(=O)C5)c(OC)n4)c3Cl)c2Cl)cnc1CNC[C@@H]1CCC(=O)N1` (stereo partly shown) [compound 286]: the IC50 was 60 pM.
